Biological target: GST-CCNT1 (AA 1–300) (Homo sapiens, UniProt O60563)
Test: AlphaLISA disruption of CCNT1-AFF4 peptide interaction
Assay type: binding

Sequence of GST-CCNT1 (AA 1–300) (O60563 1-300): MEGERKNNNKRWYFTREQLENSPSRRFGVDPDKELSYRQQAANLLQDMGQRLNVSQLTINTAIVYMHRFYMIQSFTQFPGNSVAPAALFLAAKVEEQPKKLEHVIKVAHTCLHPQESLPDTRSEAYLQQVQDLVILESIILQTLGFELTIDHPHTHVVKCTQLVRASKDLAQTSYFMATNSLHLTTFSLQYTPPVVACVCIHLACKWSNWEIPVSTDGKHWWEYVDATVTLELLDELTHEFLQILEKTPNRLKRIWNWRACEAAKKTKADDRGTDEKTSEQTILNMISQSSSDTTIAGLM

Structure (SMILES): COc1cccc(C(=O)/C=C(\O)C(=O)Nc2cc(Cl)ccc2C)c1 [4a, (2Z)-N-(5-Chloro-2-methylphenyl)-2-hydroxy-4-(3-methoxyphenyl)-4-oxo-2butenamide]
- Ki: 3.48 µM
